Source: patent US11685761B2, “Cyclic di-nucleotide compounds as sting agonists” (Merck Sharp & Dohme Corp., priority 2017, dated 2023)

Columns and labels:
full-length HAQ STING = target: T1, full-length HAQ STING (Homo sapiens, UniProt Q86WV6, G230A/H232R/R293Q/R71H); experiment: 3H-cGAMP filtration binding assay (HAQ STING); conditions: competition with tritiated cGAMP ligand; T. ni cell membranes overexpressing full-length HAQ STING
T1 construct: made in house; host or cells: Trichoplusia ni (Hi-Five) insect cells, baculovirus generated in Sf21; crude membranes
T1 sequence (Q86WV6 with tags, fused parts or gaps R71H/G230A/H232R/R293Q): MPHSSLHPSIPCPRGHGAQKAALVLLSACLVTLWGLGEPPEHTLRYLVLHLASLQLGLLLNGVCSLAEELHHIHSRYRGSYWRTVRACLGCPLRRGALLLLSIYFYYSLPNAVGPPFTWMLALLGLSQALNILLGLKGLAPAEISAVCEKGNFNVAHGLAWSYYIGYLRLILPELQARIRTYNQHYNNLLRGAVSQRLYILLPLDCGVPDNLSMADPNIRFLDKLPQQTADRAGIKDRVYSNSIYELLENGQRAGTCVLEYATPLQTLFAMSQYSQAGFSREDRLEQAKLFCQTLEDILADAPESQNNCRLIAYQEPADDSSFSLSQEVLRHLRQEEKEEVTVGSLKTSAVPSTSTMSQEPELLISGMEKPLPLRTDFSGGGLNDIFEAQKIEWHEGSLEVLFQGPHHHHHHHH

full-length WT STING = target: T2, full-length WT STING (Homo sapiens, UniProt Q86WV6, H232R); experiment: 3H-cGAMP filtration binding assay (WT STING); conditions: competition with tritiated cGAMP ligand; T. ni cell membranes overexpressing full-length WT STING
T2 construct: made in house; host or cells: Trichoplusia ni insect cells, baculovirus generated in Sf21; crude membranes
T2 sequence (Q86WV6 with tags, fused parts or gaps H232R): as the sequence (Q86WV6 with tags, fused parts or gaps R71H/G230A/H232R/R293Q) above, with H71R, A230G, Q293R counted along it
Procedure: The ability of compounds to bind STING is quantified by their ability to compete with tritiated cGAMP ligand for human STING receptor membrane using a radioactive filter-binding assay. The binding assay employs STING receptor obtained from Trichoplusia ni cell membranes (T. ni; Expression Systems, cat #94-002F, www.expressionsystems.com) overexpressing full-length WT STING and tritiated cGAMP ligand.
The basic WT STING filtration assay protocol is as follows:
16 nM of [^3H] c-GAMP ligand was prepared by diluting into assay buffer, and 50 uL of this working stock was manually added to each well of the assay plate. After ligand addition, 2 uL of either titrated test compound, DMSO control (Sigma #276855), or cold cGAMP control was added to the appropriate wells using a BIOMEK FX. The serially titrated compound was prepared on a Hamilton STARPlus CORE in a 96-well plate (Greiner, #651201) using a 1:3 ten-point dose response format. Following compound addition, a 2.2 ug/ml working concentration of STING membrane (SEQ. ID. No. 3) was prepared by diluting concentrated membrane into assay buffer (1×PBS; Invitrogen #SH30028.02) and douncing 7× using a manual tissue homogenizer (Wheaton, #357546). 148 uL of this prepared membrane was then manually added to each well of a 96-well deep-well polypropylene plate (Fisher Scientific, #12-566-121). Compound, ligand, and membrane then incubated for 60 min at RT before the contents of each assay plate were filtered through a 96-well GF/B filter plate (PerkinElmer, #6005250) using a TOMTEC MACH III Cell Harvester equipped with 20 mM HEPES buffer (Fisher Scientific, #BP299500). The filter plates were then dried at 55° C. for 30 min using a pressurized VWR oven before 30 uL of ULTIMA GOLD F scintillate was added to each well. Tritium levels for each reaction well were then measured using a PerkinElmer TopCount plate reader.
After normalization to controls, the percent activity for each compound concentration was calculated by measuring the amount of remaining radioactivity. The plot of percent activity versus the log of compound concentration was fit with a 4-parameter dose response equation to calculate EC50 values.

[1] = test system: IFN-β secretion from THP1 cells; experiment: IFN-β secretion in THP1 cell culture (5 h); assay type: cell-based, human; conditions: THP1 cells, 5 h incubation, compound at 30 μM, 30 uM cGAMP = 100%; for activation at 30 µM: Homo sapiens, THP-1, 5 h, read-out: % Effect at 30 μM relative to 2′3′-cGAMP
Procedure, shortened: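 THP1 cells at 0.8×10^6/mL were incubated with compounds for 5 h at 37 °C, and secreted IFN-β in the supernatant was measured by AlphaLISA. Percent effect was normalised to 30 uM cGAMP (positive) and 0.3% DMSO (negative) controls. EC50 came from a 4-parameter fit.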

Compound | EC50 (full-length HAQ STING) [nM] | EC50 (full-length WT STING) [nM] | activation at 30 µM [1] [%] | % Effect at 30 μM relative to 2′3′-cGAMP [1] [%]
Nc1ncnc2c1ncn2[C@@H]1O[C@@H]2CO[P@@](=O)(S)O[C@@H]3[C@H](O)[C@@H](CO[P@](=O)(S)O[C@H]2[C@@H]1F)O[C@H]3n1ccc(=O)n2ccnc12 [Example 3, 8-[(2S,5R,7R,8R,10R,12aR,14R,15S,15aR, 16R)-14-(6-amino-9H-purin-9-yl)-15-fluoro-16-hydroxy-2,10-dioxido-2,10-disulfanyloctahydro-12H-5,8-methanofuro[3,2-l][1,3,6,9,11,2,10]pentaoxadiphosphacyclotetradecin-7-yl]imidazo [1,2-a]pyrimidin-5(8H)-one] | 140 | 1860 | 20 | –
Nc1ncnc2c1nnn2[C@@H]1O[C@@H]2COP(=O)(S)O[C@@H]3[C@H](O)[C@@H](COP(=O)(S)O[C@H]2[C@@H]1F)O[C@H]3n1ccc(=O)n2ccnc12 (stereo partly drawn) [Example 4] | 59 | 1760 | 139 | –
Nc1ncnc2c1ccn2[C@H]1C[C@@H]2O[P@@](=O)(S)OC[C@H]3O[C@@H](n4ccc(=O)n5ccnc45)[C@H](O[P@](=O)(S)OC[C@H]2O1)[C@@H]3O [Example 5, 8-[(2S,5R,7R,8R,10R,12aR,14R,15aS,16R)-14-(4-amino-7H-pyrrolo[2,3-d]pyrimidin-7-yl)-16-hydroxy-2,10-dioxido-2,10-disulfanyloctahydro-12H-5,8-methanofuro[3,2-l][1,3,6,9,11,2,10]pentaoxadiphosphacyclotetradecin-7-yl]imidazo [1,2-a]pyrimidin-5(8H)-one] | 563 | 10300 | 39 | –
Nc1ncnc2c1ncn2[C@@H]1O[C@@H]2CO[P@@](=O)(S)O[C@@H]3[C@H](O)[C@@H](CO[P@@](=O)(S)O[C@H]2[C@@H]1F)O[C@H]3n1ccc(=O)c2nccn21 [Example 13, 5-[(2R,5R,7R,8R,10R,12aR,14R,15S,15aR, 16R)-14-(6-amino-9H-purin-9-yl)-15-fluoro-16-hydroxy-2,10-dioxido-2,10-disulfanyloctahydro-12H-5,8-methanofuro[3,2-l][1,3,6,9,11,2,10]pentaoxadiphosphacyclotetradecin-7-yl]imidazo [1,2-b]pyridazin-8(5H)-one] | 238 | 1960 | 334 | –
Nc1ncnc2c1ncn2[C@@H]1O[C@@H]2CO[P@@](=O)(S)O[C@@H]3C[C@@H](CO[P@@](=O)(S)O[C@H]2[C@@H]1F)O[C@H]3n1ccc(=O)n2ccnc12 [Example 19, 8-[(2R,5S,7R,8R,10R,12aR,14R,15S,15aR)-14-(6-amino-9H-purin-9-yl)-15-fluoro-2,10-dioxido-2,10-disulfanyloctahydro-12H-5,8-methanofuro[3,2-l][11,3,6,9,11,2,10]pentaoxadiphosphacyclotetradecin-7-yl]imidazo[1,2-a]pyrimidin-5(8H)-one] | 208 | 902 | – | 7

Now from value to molecule, other results behind:

EC50 (full-length HAQ STING) [nM] | EC50 (full-length WT STING) [nM] | Compound | activation at 30 µM [1] [%] | % Effect at 30 μM relative to 2′3′-cGAMP [1] [%]
45 | 136 | O=c1[nH]cnc2c1ncn2[C@@H]1O[C@@H]2CO[P@@](=O)(S)O[C@@H]3C[C@@H](CO[P@@](=O)(S)O[C@H]2[C@@H]1F)O[C@H]3n1ccc(=O)n2ccnc12 [Example 29, 9-[(2R,5S,7R,8R,10R,12aR,14R,15S,15aR)-15-fluoro-2,10-dioxido-7-(5-oxoimidazo[1,2-a]pyrimidin-8(5H)-yl)-2,10-disulfanyloctahydro-12H-5,8-methanofuro[3,2-l][1,3,6,9,11,2,10]pentaoxadiphosphacyclotetradecin-14-yl]-1,9-dihydro-6H-purin-6-one] | 150 | –
2 | 124 | Nc1nc2c(ncn2[C@@H]2O[C@@H]3CO[P@](=O)(S)O[C@H]4[C@H](F)[C@H](n5ccc6c(=O)[nH]cnc65)O[C@@H]4CO[P@@](=O)(S)O[C@@H]2C3)c(=O)[nH]1 [Example 41, 2-amino-9-[(2R,5S,7R,8R,10R,12aR,14R,15S,15aR)-15-fluoro-2,10-dioxido-14-(4-oxo-3,4-dihydro-7H-pyrrolo[2,3-d]pyrimidin-7-yl)-2,10-disulfanyl-octahydro-12H-5,8-methanofuro[3,2-l] [1,3,6,9,11,2,10]pentaoxadiphosphacyclotetradecin-7-yl]-l,9-dihydro-6H-purin-6-one] | 156 | –
3 | 85 | Nc1nc2c(nnn2[C@@H]2O[C@@H]3COP(=O)(S)O[C@H]4[C@H](F)[C@H](n5ccc6c(=O)[nH]cnc65)O[C@@H]4COP(=O)(S)O[C@@H]2C3)c(=O)[nH]1 (stereo partly drawn) [Example 45, 5-amino-3-[(5S,7R,8R,12aR,14R,15S, 15aR)-15-fluoro-2,10-dioxido-14-(4-oxo-3,4-dihydro-7H-pyrrolo[2,3-d]pyrimidin-7-yl)-2,10-disulfanyl-octahydro-12H-5,8-methanofuro[3,2-l][1,3,6,9,11,2,10]pentaoxadiphosphacyclotetradecin-7-yl]-3,6-dihydro-7H-[1,2,3]triazolo[4,5-d]pyrimidin-7-one] | 135 | –
2 | 205 | Nc1nc2c(nnn2[C@@H]2O[C@@H]3COP(=O)(S)O[C@H]4[C@H](F)[C@H](n5ccc6c(=O)[nH]cnc65)O[C@@H]4COP(=O)(S)O[C@@H]2[C@H]3F)c(=O)[nH]1 (stereo partly drawn) [Example 48, 5-amino-3-[(5R,7R,8S,12aR,14R,15S,15aR,16S)-15,16-difluoro-2,10-dioxido-14-(4-oxo-3,4-dihydro-7H-pyrrolo[2,3-d]pyrimidin-7-yl)-2,10-disulfanyl-octahydro-12H-5,8-methanofuro[3,2-l] [1,3,6,9,11,2,10]pentaoxadiphosphacyclotetradecin-7-yl]-3,6-dihydro-7H-[1,2,3]triazolo[4,5-d]pyrimidin-7-one] | 159 | –
